According to publication PMC8892843 (The Science of the total environment, 2021):

Tests used:
[1] = molecular target: nicotinic receptor (nAChR) found in H. azteca; assay: competitive [3H]imidacloprid displacement, filtration; assay type: binding, Hyalella azteca; details: 1 nM [3H]IMI, pH 7.0, 20 °C, crude microsomes 100 μg/mL
[2] = molecular target: nicotinic receptor (nAChR) found in C. dilutus; assay: as above; assay type: binding, Chironomus dilutus; details: 1 nM [3H]IMI, pH 7.0, 20 °C, crude microsomes 100 μg/mL

In the case of `O=[N+]([O-])N=C1NCCN1Cc1ccc(Cl)nc1` [imidacloprid], the IC50 [1] is reported as 8.86 nM and the IC50 [2] is reported as 8.04 nM.
